Several values for one entry are separate records, joined by “and”; a condition that tells them apart may be missing. Equal entries are not always repeated. Inconclusive results and toxic doses are left out. The calls were made as follows: active = survival T/C of 150% or more; inactive = T/C below 125% in these data.
System: P388 leukemia ip, CD2F1 mice, survival T/C
Test: NCI In Vivo Anticancer Drug Screen. Data for tumor model P388 Leukemia (intraperitoneal) in CD2F1 (CDF1) mice
Settings: endpoint: median survival time, higher = longer survival
Outline: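 Mice carrying the transplanted tumor received test compound or vehicle. Survival was recorded in each group, and the value is the treated-group measurement divided by that of the vehicle-treated control group.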

[1] = dose: 50.0 mg/kg/injection, schedule: Q01DX005 (ip), vehicle: Klucel (hydroxypropylcellulose) (HPC)
[2] = dose: 100.0 mg/kg/injection, schedule: Q01DX005 (ip), vehicle: Klucel (hydroxypropylcellulose) (HPC)
[3] = dose: 200.0 mg/kg/injection, schedule: Q01DX005 (ip), vehicle: Klucel (hydroxypropylcellulose) (HPC)
[4] = dose: 50.0 mg/kg/injection, schedule: Q01DX009 (ip), vehicle: saline with Tween-80
[5] = dose: 100.0 mg/kg/injection, schedule: Q01DX009 (ip), vehicle: saline with Tween-80
[6] = dose: 200.0 mg/kg/injection, schedule: Q01DX009 (ip), vehicle: saline with Tween-80
[7] = dose: 100.0 mg/kg/injection, schedule: Q04DX003 (ip), vehicle: saline with Tween-80
[8] = dose: 200.0 mg/kg/injection, schedule: Q04DX003 (ip), vehicle: saline with Tween-80
[9] = dose: 50.0 mg/kg/injection, schedule: Q04DX003 (ip), vehicle: saline with Tween-80
[10] = dose: 60.0 mg/kg/injection, schedule: Q01DX005 (ip), vehicle: saline with Tween-80
[11] = dose: 120.0 mg/kg/injection, schedule: Q01DX005 (ip), vehicle: saline with Tween-80
[12] = dose: 240.0 mg/kg/injection, schedule: Q01DX005 (ip), vehicle: saline with Tween-80
[13] = dose: 50.0 mg/kg/injection, schedule: Q01DX009 (ip), vehicle: saline
[14] = dose: 100.0 mg/kg/injection, schedule: Q01DX009 (ip), vehicle: saline
[15] = dose: 50.0 mg/kg/injection, schedule: Q01DX005 (ip), vehicle: saline with Tween-80
[16] = dose: 200.0 mg/kg/injection, schedule: Q01DX005 (ip), vehicle: saline with Tween-80
[17] = dose: 200.0 mg/kg/injection, schedule: Q01DX009 (ip), vehicle: saline
[18] = dose: 25.0 mg/kg/injection, schedule: Q04DX003 (ip), vehicle: saline with Tween-80

Measured: T/C

O=C(Nc1cc(Nc2ccc(NC(=O)c3ccccc3)c3c2C(=O)c2ccccc2C3=O)cc2c1C(=O)c1ccccc1C2=O)c1ccccc1
inactive: [1] 103 % of control | [2] 103 % of control | [3] 97 % of control

C1=CCC2COCC2C1 (configuration not stated)
inactive: [4] 98 % of control | [5] 102 % of control | [6] 100 % of control

CCCCCCCCCCCCCCCCCCCCCC(=O)OC
inactive: [4] 100 % of control | [5] 100 % of control | [7] 91 % of control | [6] 100 % of control | [8] 87 % of control

CS(=O)(=O)C(CCC(=O)C(c1ccccc1)c1ccccc1)C(=O)c1ccccc1 (configuration not stated)
inactive: [1] 110 % of control | [2] 109 % of control | [3] 93 % of control

CCOC(=O)CCC[P+](c1ccccc1)(c1ccccc1)c1ccccc1
inactive: dose: 5.33 mg/kg/injection, schedule: Q01DX009 (ip), vehicle: saline with Tween-80 109 % of control | dose: 8.0 mg/kg/injection, schedule: Q01DX009 (ip), vehicle: saline with Tween-80 118 % of control | dose: 12.0 mg/kg/injection, schedule: Q01DX009 (ip), vehicle: saline with Tween-80 109 % of control

O=c1[nH]cnc2cc(N3CCOCC3)c([N+](=O)[O-])cc12
inactive: [9] 105 % of control | [7] 100 % of control | [8] 100 % of control

COc1cccc(C(=O)c2ccncc2)c1OC
inactive: dose: 12.5 mg/kg/injection, schedule: Q01DX009 (ip), vehicle: water 100 % of control | dose: 25.0 mg/kg/injection, schedule: Q01DX009 (ip), vehicle: water 100 % of control | dose: 50.0 mg/kg/injection, schedule: Q01DX009 (ip), vehicle: water 103 % of control | dose: 100.0 mg/kg/injection, schedule: Q01DX009 (ip), vehicle: water 104 % of control | dose: 200.0 mg/kg/injection, schedule: Q01DX009 (ip), vehicle: water 100 % of control

O=C1OC2C=CC=CN2C(=O)C1Cc1ccccc1 (configuration not stated)
inactive: dose: 60.0 mg/kg/injection, schedule: Q01DX005 (ip), vehicle: Klucel (hydroxypropylcellulose) (HPC) 105 % of control | dose: 120.0 mg/kg/injection, schedule: Q01DX005 (ip), vehicle: Klucel (hydroxypropylcellulose) (HPC) 102 % of control | dose: 240.0 mg/kg/injection, schedule: Q01DX005 (ip), vehicle: Klucel (hydroxypropylcellulose) (HPC) 100 % of control

Nc1ncnc(N)c1NC(=O)c1ccc(OCc2ccccc2)cc1
inactive: [10] 105 % of control | [11] 99 % of control | [12] 95 % of control

NC(=O)C1=NOC(C(N)=O)C1C1OC(CO)C(O)C1O (configuration not stated)
inactive: dose: 25.0 mg/kg/injection, schedule: Q01DX005 (ip), vehicle: other 98 % of control | dose: 50.0 mg/kg/injection, schedule: Q01DX005 (ip), vehicle: other 97 % of control | dose: 100.0 mg/kg/injection, schedule: Q01DX005 (ip), vehicle: other 95 % of control | dose: 200.0 mg/kg/injection, schedule: Q01DX005 (ip), vehicle: other 105 % of control

CC1=NN(c2cccc(C(F)(F)F)c2)C(=O)C1
inactive: dose: 25.0 mg/kg/injection, schedule: Q01DX009 (ip), vehicle: Klucel (hydroxypropylcellulose) (HPC) 100 % of control | dose: 50.0 mg/kg/injection, schedule: Q01DX009 (ip), vehicle: Klucel (hydroxypropylcellulose) (HPC) 106 % of control | dose: 100.0 mg/kg/injection, schedule: Q01DX009 (ip), vehicle: Klucel (hydroxypropylcellulose) (HPC) 102 % of control

CCCCCC(CN(C)C)C(=O)/C=C/c1ccc(Cl)cc1 (configuration not stated)
inactive: dose: 12.5 mg/kg/injection, schedule: Q01DX009 (ip), vehicle: saline with Tween-80 95 % of control | dose: 25.0 mg/kg/injection, schedule: Q01DX009 (ip), vehicle: saline with Tween-80 96 % of control | [4] 113 % of control

CC1CC(N)=NC1C(=O)NCCC#N (configuration not stated)
inactive: dose: 12.5 mg/kg/injection, schedule: Q01DX009 (ip), vehicle: saline 97 % of control | dose: 25.0 mg/kg/injection, schedule: Q01DX009 (ip), vehicle: saline 101 % of control | [13] 98 % of control | [14] 90 % of control

Nc1ccc2c(SCCCCSc3c4ccccc4nc4cc(N)ccc34)c3ccccc3nc2c1
inactive: [10] 106 % of control | [11] 100 % of control

Cc1cc2oc3c(ccc(=O)n3C)c(=O)c2c(C)c1Cl
inactive: [15] 104 % of control | dose: 100.0 mg/kg/injection, schedule: Q01DX005 (ip), vehicle: saline with Tween-80 113 % of control | [16] 88 % of control

O=[N+]([O-])/C=C/c1cc2c(cc1Cl)OCO2
inactive: [1] 107 % of control | [2] 111 % of control | [3] 95 % of control

CC/C(=C1/C=C(O)C(=O)C=C1OC)c1ccc(OC)cc1
inactive: dose: 2.5 mg/kg/injection, schedule: Q01DX009 (ip), vehicle: saline + alcohol 100 % of control | dose: 5.0 mg/kg/injection, schedule: Q01DX009 (ip), vehicle: saline + alcohol 101 % of control | dose: 10.0 mg/kg/injection, schedule: Q01DX009 (ip), vehicle: saline + alcohol 103 % of control

COC(=N)C(Cl)(Cl)Cl
inactive: [13] 97 % of control | [14] 100 % of control | [17] 95 % of control

COc1ccc(OC)c(C(/C=N/O)OC)c1 (configuration not stated)
inactive: [18] 98 % of control and 100 % of control | [9] 98 % of control and 94 % of control | [7] 99 % of control and 87 % of control | [8] 103 % of control and 94 % of control | dose: 400.0 mg/kg/injection, schedule: Q04DX003 (ip), vehicle: saline with Tween-80 99 % of control

c1ccc2c3c(c4c(c2c1)CN(C1CCCCC1)CO4)OCN(C1CCCCC1)C3
inactive: dose: 6.25 mg/kg/injection, schedule: Q01DX005 (ip), vehicle: saline with Tween-80 106 % of control | dose: 12.5 mg/kg/injection, schedule: Q01DX005 (ip), vehicle: saline with Tween-80 107 % of control and 112 % of control | [15] 116 % of control

COC(=O)C1=NC(=N)N=C(C(=O)OC)C1(C)C(=O)c1ccc(Cl)cc1 (configuration not stated)
inactive: [10] 100 % of control and 104 % of control | [11] 98 % of control | [12] 99 % of control

Cc1nnc2n1N=C1CC(C)(C)CC(=O)C1S2 (configuration not stated)
inactive: [4] 101 % of control | [5] 102 % of control | [6] 94 % of control

Nc1nc(=S)c2ncn(C3OC(CO)C(O)C3O)c2[nH]1 (configuration not stated)
active: dose: 2.0 mg/kg/injection, schedule: Q01DX010 (ip), vehicle: saline 168 % of control | [16] 150 % of control and 158 % of control
inactive: dose: 8.0 mg/kg/injection, schedule: Q01DX010 (ip), vehicle: saline 118 % of control | dose: 25.0 mg/kg/injection, schedule: Q01DX005 (ip), vehicle: saline with Tween-80 104 % of control | [15] 120 % of control | dose: 100.0 mg/kg/injection, schedule: Q04DX003 (ip), vehicle: saline sonified 122 % of control | dose: 132.0 mg/kg/injection, schedule: Q04DX003 (ip), vehicle: saline with Tween-80 117 % of control | dose: 400.0 mg/kg/injection, schedule: Q04DX003 (ip), vehicle: saline sonified 86 % of control

CSc1nc2c(Cl)ncnc2s1
inactive: [10] 96 % of control | [11] 96 % of control

O=S(=O)(F)c1ccc(N=C=S)cc1
inactive: dose: 6.25 mg/kg/injection, schedule: Q04DX003 (ip), vehicle: saline with Tween-80 100 % of control | dose: 12.5 mg/kg/injection, schedule: Q04DX003 (ip), vehicle: saline with Tween-80 104 % of control | [18] 109 % of control

CC(C)c1cccc(C(C)C)c1NC(=O)OCCN(C)C
inactive: [10] 100 % of control | [11] 115 % of control

Cc1ccc(S(=O)(=O)OCC(O)C(O)COS(=O)(=O)c2ccc(C)cc2)cc1 (configuration not stated)
inactive: [13] 97 % of control | [14] 102 % of control and 113 % of control | [17] 101 % of control and 95 % of control

O=[N+]([O-])c1ccc(Sc2ncccn2)c([N+](=O)[O-])c1
inactive: dose: 50.0 mg/kg/injection, schedule: Q01DX009 (ip), vehicle: suspension in saline 103 % of control | dose: 100.0 mg/kg/injection, schedule: Q01DX009 (ip), vehicle: suspension in saline 88 % of control | dose: 200.0 mg/kg/injection, schedule: Q01DX009 (ip), vehicle: suspension in saline 91 % of control

CC1CCC(c2ccccc2)(c2ccccc2)C1=O (configuration not stated)
inactive: dose: 100.0 mg/kg/injection, schedule: Q01DX001 (ip), vehicle: Klucel (hydroxypropylcellulose) (HPC) 96 % of control | dose: 200.0 mg/kg/injection, schedule: Q01DX001 (ip), vehicle: Klucel (hydroxypropylcellulose) (HPC) 100 % of control | dose: 400.0 mg/kg/injection, schedule: Q01DX001 (ip), vehicle: Klucel (hydroxypropylcellulose) (HPC) 96 % of control

From PubChem BioAssay AID330 (DTP/NCI, 2004)
